Measured values taken from ChEMBL document CHEMBL1157033, “Developing a complete pharmacology for AMPA receptors: a perspective on subtype-selective ligands” (Bioorg Med Chem, 2010).

What was measured:
[1] = target: T1, Glutamate receptor 2 (Homo sapiens, UniProt P42262); test: Activity at human recombinant GluA2 receptor flip isoform expressed in HEK293 cells assessed as effect on glutamate-induced calcium flux by Fluo-4/AM staining-based fluorescence assay; type: cell-based
[2] = target: T2, Glutamate receptor 1 (Homo sapiens, UniProt P42261); test: Agonist activity at recombinant GluA1 receptor flip isoform expressed in Xenopus oocytes; type: functional, cell-based, Oocyte
[3] = Activity at recombinant GluA2A4 receptor flip isoform expressed in Xenopus oocytes assessed as effect on 300 uM glutamate-induced current; type: cell-based; conditions: Oocyte
[4] = target: T2, Glutamate receptor 1; test: Activity at recombinant GluA1 receptor flop isoform expressed in Xenopus oocytes co-expressing gamma2-TARP assessed as effect on 10 uM glutamate-induced current by voltage-clamp electrophysiological assay; type: cell-based, Oocyte
[5] = target: T3, Glutamate receptor AMPA 2/3 (Homo sapiens) (UniProt P42263+P42262); test: Activity at recombinant GluA2 receptor flop/GluA3 receptor flip isoform expressed in Xenopus oocytes assessed as potentiation of 10 uM AMPA-induced current at 100 uM relative to control; type: cell-based; conditions: Oocyte
[6] = target: T4, Glutamate receptor AMPA 1/2 (Homo sapiens, UniProt P42261+P42262); test: Activity at recombinant GluA1A2 receptor flip isoform expressed in Xenopus oocytes assessed as effect on 300 uM glutamate-induced current; type: cell-based, Oocyte
[7] = target: T1, Glutamate receptor 2; test: Activity at human recombinant GluA2 receptor flop isoform expressed in HEK293 cells assessed as effect on glutamate-induced calcium flux by Fluo-4/AM staining-based fluorescence assay; type: cell-based
[8] = target: T5, Glutamate receptor AMPA 1/2 (Homo sapiens) (UniProt P42262+P42261); test: Activity at recombinant GluA1 receptor flop/GluA2 receptor flip isoform expressed in Xenopus oocytes assessed as potentiation of 10 uM AMPA-induced current at 100 uM relative to control; type: cell-based; conditions: Oocyte
[9] = target: T5, Glutamate receptor AMPA 1/2 (Homo sapiens); test: Activity at recombinant GluA1A2 receptor flop isoform expressed in Xenopus oocytes assessed as potentiation of 10 uM AMPA-induced current at 100 uM relative to control; type: cell-based; conditions: Oocyte
[10] = target: T3, Glutamate receptor AMPA 2/3 (Homo sapiens); test: Activity at recombinant GluA2A3 receptor flop isoform expressed in Xenopus oocytes assessed as potentiation of 10 uM AMPA-induced current at 100 uM relative to control; type: cell-based; conditions: Oocyte
[11] = target: T5, Glutamate receptor AMPA 1/2 (Homo sapiens); test: Activity at recombinant GluA1A2 receptor flop isoform expressed in Xenopus oocytes assessed as potentiation of glutamate-induced current at 100 uM relative to control; type: cell-based; conditions: Oocyte
[12] = target: T6, Glutamate receptor 3 (Homo sapiens, UniProt P42263); test: Activity at human recombinant GluA3 receptor flip isoform expressed in HEK293 cells assessed as effect on glutamate-induced calcium flux by Fluo-4/AM staining-based fluorescence assay; type: cell-based
[13] = target: T6, Glutamate receptor 3; test: Activity at recombinant GluA3 receptor flip isoform expressed in Xenopus oocytes assessed as potentiation of glutamate-induced current at 100 uM relative to control; type: cell-based; conditions: Oocyte
[14] = target: T6, Glutamate receptor 3; test: Activity at recombinant GluA3 receptor flop isoform expressed in Xenopus oocytes assessed as potentiation of 10 uM AMPA-induced current at 100 uM relative to control; type: cell-based; conditions: Oocyte
[15] = target: T2, Glutamate receptor 1; test: Activity at recombinant GluA1 receptor flip isoform expressed in Xenopus oocytes co-expressing gamma2-TARP assessed as effect on 10 uM glutamate-induced current by voltage-clamp electrophysiological assay; type: cell-based, Oocyte
[16] = target: T5, Glutamate receptor AMPA 1/2 (Homo sapiens); test: Activity at recombinant GluA1A2 receptor flip isoform expressed in Xenopus oocytes assessed as potentiation of glutamate-induced current at 100 uM relative to control; type: cell-based; conditions: Oocyte
[17] = target: T6, Glutamate receptor 3; test: Activity at recombinant GluA3 receptor flip isoform expressed in Xenopus oocytes assessed as potentiation of 10 uM AMPA-induced current at 100 uM relative to control; type: cell-based; conditions: Oocyte
[18] = target: T2, Glutamate receptor 1; test: Activity at recombinant GluA1 receptor flop isoform expressed in Xenopus oocytes assessed as potentiation of 10 uM AMPA-induced current at 100 uM relative to control; type: cell-based; conditions: Oocyte
[19] = target: T3, Glutamate receptor AMPA 2/3 (Homo sapiens); test: Activity at recombinant GluA2 receptor flip/GluA3 receptor flop isoform expressed in Xenopus oocytes assessed as potentiation of 10 uM AMPA-induced current at 100 uM relative to control; type: cell-based; conditions: Oocyte
[20] = target: T5, Glutamate receptor AMPA 1/2 (Homo sapiens); test: Activity at recombinant GluA1 receptor flip/GluA2 receptor flop isoform expressed in Xenopus oocytes assessed as potentiation of 10 uM AMPA-induced current at 100 uM relative to control; type: cell-based; conditions: Oocyte
[21] = target: T4, Glutamate receptor AMPA 1/2; test: Activity at recombinant GluA1A2 receptor flop isoform expressed in Xenopus oocytes assessed as effect on 300 uM glutamate-induced current; type: cell-based, Oocyte
[22] = target: T2, Glutamate receptor 1; test: Activity at recombinant GluA1 receptor flip isoform expressed in Xenopus oocytes assessed as potentiation of glutamate-induced current at 100 uM relative to control; type: cell-based; conditions: Oocyte
[23] = target: Glutamate receptor 4 (Rattus norvegicus) (UniProt P19493); test: Activity at recombinant GluA4 receptor flip isoform expressed in Xenopus oocytes assessed as potentiation of glutamate-induced current at 100 uM relative to control; conditions: Oocyte
[24] = Activity at recombinant GluA2A4 receptor flop isoform expressed in Xenopus oocytes assessed as effect on 300 uM glutamate-induced current; type: cell-based; conditions: Oocyte
[25] = target: T2, Glutamate receptor 1; test: Activity at recombinant GluA1 receptor flip isoform expressed in Xenopus oocytes assessed as potentiation of 10 uM AMPA-induced current at 100 uM relative to control; type: cell-based; conditions: Oocyte
[26] = target: T2, Glutamate receptor 1; test: Activity at human recombinant GluA1 receptor flip isoform expressed in HEK293 cells assessed as effect on glutamate-induced calcium flux by Fluo-4/AM staining-based fluorescence assay; type: cell-based
[27] = Activity at human recombinant GluA4 receptor flip isoform expressed in HEK293 cells assessed as effect on glutamate-induced calcium flux by Fluo-4/AM staining-based fluorescence assay; type: cell-based
[28] = Activity at recombinant GluA4 receptor flip isoform expressed in Xenopus oocytes assessed as effect on 300 uM glutamate-induced current; type: cell-based; conditions: Oocyte
[29] = target: T2, Glutamate receptor 1; test: Activity at recombinant GluA1 receptor flop isoform expressed in Xenopus oocytes assessed as potentiation of glutamate-induced current at 100 uM relative to control; type: cell-based; conditions: Oocyte
[30] = target: T1, Glutamate receptor 2; test: Activity at recombinant GluA2 receptor flip isoform expressed in Xenopus oocytes co-expressing gamma2-TARP assessed as effect on glutamate/trichloromethiazide-induced current; type: cell-based, Oocyte
[31] = target: T2, Glutamate receptor 1; test: Activity at recombinant GluA1 receptor flip isoform expressed in Xenopus oocytes co-expressing gamma2-TARP assessed as effect on glutamate/trichloromethiazide-induced current; type: cell-based, Oocyte
[32] = tested on: Oocyte; conditions: at 0.5 µM
[33] = target: T6, Glutamate receptor 3; test: Inhibition of recombinant GluA3 receptor flop isoform expressed in Xenopus oocytes assessed as inhibition of […] uM kainate-induced current by patch clamp electrophysiological assay; type: cell-based, Oocyte
[34] = target: T6, Glutamate receptor 3; conditions: Oocyte; at 0.5 µM
[35] = target: T2, Glutamate receptor 1; type: cell-based, Oocyte
[36] = Antagonist activity at recombinant GluA4 receptor flip isoform expressed in Xenopus oocytes; type: functional; conditions: Xenopus laevis, Oocyte
[37] = Antagonist activity at recombinant GluA2A4 receptor flip isoform expressed in Xenopus oocytes; type: functional; conditions: Xenopus laevis, Oocyte
[38] = Antagonist activity at recombinant GluA2A4 receptor flip isoform expressed in Xenopus oocytes assessed as inhibition of glutamate-induced current; type: functional; conditions: Xenopus laevis, Oocyte

T2 sequence (P42261 whole entry, canonical isoform): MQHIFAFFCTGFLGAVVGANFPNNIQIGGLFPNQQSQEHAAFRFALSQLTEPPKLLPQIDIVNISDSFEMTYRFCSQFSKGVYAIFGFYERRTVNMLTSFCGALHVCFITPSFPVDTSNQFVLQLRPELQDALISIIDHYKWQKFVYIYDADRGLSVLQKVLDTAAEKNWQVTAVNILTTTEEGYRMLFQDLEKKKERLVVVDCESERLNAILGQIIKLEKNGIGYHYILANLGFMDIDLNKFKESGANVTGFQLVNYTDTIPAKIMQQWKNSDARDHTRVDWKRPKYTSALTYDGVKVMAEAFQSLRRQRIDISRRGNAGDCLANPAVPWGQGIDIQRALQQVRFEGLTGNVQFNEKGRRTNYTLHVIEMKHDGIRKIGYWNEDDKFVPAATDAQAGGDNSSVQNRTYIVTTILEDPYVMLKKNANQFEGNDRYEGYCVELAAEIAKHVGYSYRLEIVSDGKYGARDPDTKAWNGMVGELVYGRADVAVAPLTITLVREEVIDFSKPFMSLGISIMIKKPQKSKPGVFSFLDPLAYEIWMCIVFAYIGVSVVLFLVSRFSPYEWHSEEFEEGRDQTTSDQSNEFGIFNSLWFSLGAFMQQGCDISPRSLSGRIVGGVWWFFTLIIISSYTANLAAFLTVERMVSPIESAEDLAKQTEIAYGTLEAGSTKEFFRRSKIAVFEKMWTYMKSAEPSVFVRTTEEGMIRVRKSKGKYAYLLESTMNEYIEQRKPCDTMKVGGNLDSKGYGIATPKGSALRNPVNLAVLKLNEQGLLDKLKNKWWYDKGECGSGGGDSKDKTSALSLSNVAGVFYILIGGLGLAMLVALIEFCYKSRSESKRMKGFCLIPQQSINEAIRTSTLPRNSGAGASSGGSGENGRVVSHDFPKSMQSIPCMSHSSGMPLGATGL
T6 sequence (P42263 whole entry, canonical isoform): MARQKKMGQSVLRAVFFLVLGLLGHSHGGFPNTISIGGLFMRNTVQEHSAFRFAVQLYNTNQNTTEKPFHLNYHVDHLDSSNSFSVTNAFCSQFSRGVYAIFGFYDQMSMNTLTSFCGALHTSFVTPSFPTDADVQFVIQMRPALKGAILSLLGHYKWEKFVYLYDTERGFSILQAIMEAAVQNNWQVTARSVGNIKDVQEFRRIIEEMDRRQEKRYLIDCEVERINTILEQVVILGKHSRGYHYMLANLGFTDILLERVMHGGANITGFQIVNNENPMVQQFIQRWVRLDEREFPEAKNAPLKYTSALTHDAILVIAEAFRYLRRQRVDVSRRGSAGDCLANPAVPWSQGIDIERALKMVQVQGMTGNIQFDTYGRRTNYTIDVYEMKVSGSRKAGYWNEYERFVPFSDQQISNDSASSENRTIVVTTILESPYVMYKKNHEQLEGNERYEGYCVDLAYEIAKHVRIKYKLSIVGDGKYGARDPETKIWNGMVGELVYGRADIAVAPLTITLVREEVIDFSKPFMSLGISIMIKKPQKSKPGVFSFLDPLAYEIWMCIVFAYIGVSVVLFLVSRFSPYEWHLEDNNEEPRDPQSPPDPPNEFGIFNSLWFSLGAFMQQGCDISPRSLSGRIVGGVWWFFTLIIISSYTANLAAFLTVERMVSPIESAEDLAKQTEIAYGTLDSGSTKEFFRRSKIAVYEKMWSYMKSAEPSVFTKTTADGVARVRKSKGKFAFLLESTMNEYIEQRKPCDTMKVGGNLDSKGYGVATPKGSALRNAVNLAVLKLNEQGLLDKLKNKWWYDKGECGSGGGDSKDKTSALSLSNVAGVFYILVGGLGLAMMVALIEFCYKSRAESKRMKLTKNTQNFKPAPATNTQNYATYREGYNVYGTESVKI
T1 sequence (P42262 whole entry, canonical isoform): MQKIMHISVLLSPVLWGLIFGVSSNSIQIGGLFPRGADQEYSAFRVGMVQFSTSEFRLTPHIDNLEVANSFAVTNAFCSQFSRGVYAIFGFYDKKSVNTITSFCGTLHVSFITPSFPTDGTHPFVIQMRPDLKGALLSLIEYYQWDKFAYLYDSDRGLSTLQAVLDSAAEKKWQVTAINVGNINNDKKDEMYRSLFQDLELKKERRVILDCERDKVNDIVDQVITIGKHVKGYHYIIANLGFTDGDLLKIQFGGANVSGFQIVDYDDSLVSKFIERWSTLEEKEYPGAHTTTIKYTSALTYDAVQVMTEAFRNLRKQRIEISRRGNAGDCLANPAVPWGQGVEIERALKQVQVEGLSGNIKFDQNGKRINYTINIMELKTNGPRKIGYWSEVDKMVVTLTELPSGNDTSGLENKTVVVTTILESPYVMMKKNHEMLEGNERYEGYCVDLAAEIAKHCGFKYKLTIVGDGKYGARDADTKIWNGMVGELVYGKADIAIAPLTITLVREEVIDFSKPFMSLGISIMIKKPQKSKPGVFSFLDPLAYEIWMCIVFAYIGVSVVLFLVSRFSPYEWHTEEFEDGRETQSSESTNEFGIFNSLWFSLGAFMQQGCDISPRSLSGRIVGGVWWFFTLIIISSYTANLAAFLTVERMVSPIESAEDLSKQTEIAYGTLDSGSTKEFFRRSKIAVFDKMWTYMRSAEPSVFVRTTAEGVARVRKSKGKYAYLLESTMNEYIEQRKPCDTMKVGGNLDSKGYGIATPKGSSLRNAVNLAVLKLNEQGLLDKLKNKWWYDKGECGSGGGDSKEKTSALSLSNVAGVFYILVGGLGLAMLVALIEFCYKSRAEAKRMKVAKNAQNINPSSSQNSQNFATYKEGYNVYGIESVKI
T4 sequence (P42262 whole entry, canonical isoform): as above
T4 sequence (P42261 whole entry, canonical isoform): as the sequence (P42261 whole entry, canonical isoform) above

**Q.** With `NS(=O)(=O)c1cc2c(cc1Cl)NC(C1CC3C=CC1C3)NS2(=O)=O` (stereo not drawn) [CYCLOTHIAZIDE] as the compound, how does the EC50 [1] read?
**A.** 2240 nM

**Q.** What about the EC50 [2] of the same compound?
**A.** 1000 nM

**Q.** And the EC50 [3]?
**A.** 5 µM

**Q.** And the EC50 [4]?
**A.** 10 µM

**Q.** What about the fold change (FC) [5] of the same compound?
**A.** 6.83

**Q.** What about the EC50 [6] of the same compound?
**A.** 6.6 µM

**Q.** What about the EC50 [7] of the same compound?
**A.** > 100 µM

**Q.** And the fold change (FC) [8]?
**A.** 11.6

**Q.** What about the fold change (FC) [9] of the same compound?
**A.** 3.53

**Q.** What about the fold change (FC) [10] of the same compound?
**A.** 10.5

**Q.** What about the fold change (FC) [11] of the same compound?
**A.** 61

**Q.** What about the EC50 [12] of the same compound?
**A.** 13.7 µM

**Q.** What about the fold change (FC) [13] of the same compound?
**A.** 69

**Q.** What about the fold change (FC) [14] of the same compound?
**A.** 5.59

**Q.** And the EC50 [15]?
**A.** 2000 nM

**Q.** And the fold change (FC) [16]?
**A.** 137

**Q.** What about the fold change (FC) [17] of the same compound?
**A.** 3.59

**Q.** What about the fold change (FC) [18] of the same compound?
**A.** 1.34

**Q.** And the fold change (FC) [19]?
**A.** 7.18

**Q.** And the fold change (FC) [20]?
**A.** 19.9

**Q.** And the EC50 [21]?
**A.** > 76 µM

**Q.** What about the fold change (FC) [22] of the same compound?
**A.** 103

**Q.** What about the fold change (FC) [23] of the same compound?
**A.** 171

**Q.** What about the EC50 [24] of the same compound?
**A.** > 91 µM

**Q.** And the fold change (FC) [25]?
**A.** 5.31

**Q.** What about the EC50 [26] of the same compound?
**A.** 19.8 µM

**Q.** What about the EC50 [27] of the same compound?
**A.** 3.91 µM

**Q.** What about the EC50 [28] of the same compound?
**A.** 5.9 µM

**Q.** What about the fold change (FC) [29] of the same compound?
**A.** 22

**Q.** With `CNC(=O)N1N=C(c2ccc(N)cc2)c2cc3c(cc2CC1C)OCO3` (stereo not drawn) [GYKI-53655] as the compound, how does the EC50 [30] read?
**A.** 100 µM

**Q.** What about the EC50 [31] of the same compound?
**A.** 28 µM

**Q.** What does the source list for `NCCCNCCCCNCCC(=O)NCCCCCNC(=O)[C@H](CC(N)=O)NC(=O)Cc1ccc(O)cc1O` [JORO SPIDER TOXIN 3]?
**A.** inhibition [32]: 82%; IC50 [33]: 30 nM; inhibition [34]: 96%; IC50 [35]: 40 nM

**Q.** For `NS(=O)(=O)c1cccc2c1c([N+](=O)[O-])cc1nc(O)c(O)nc12` [NBQX], which Kb [36] is on record?
**A.** 102 nM

**Q.** And the Kb [37]?
**A.** 50.1 nM

**Q.** What about the Kb [38] of the same compound?
**A.** 50.1 nM
